# Laboratory results published in paper PMC6881182 (Nature microbiology, 2019).
# T1: RgNanA (RUMGNA_02692), sialic acid aldolase (Mediterraneibacter gnavus, UniProt A7B555, K177A)
# T1 sequence (A7B555 11-315 K177A): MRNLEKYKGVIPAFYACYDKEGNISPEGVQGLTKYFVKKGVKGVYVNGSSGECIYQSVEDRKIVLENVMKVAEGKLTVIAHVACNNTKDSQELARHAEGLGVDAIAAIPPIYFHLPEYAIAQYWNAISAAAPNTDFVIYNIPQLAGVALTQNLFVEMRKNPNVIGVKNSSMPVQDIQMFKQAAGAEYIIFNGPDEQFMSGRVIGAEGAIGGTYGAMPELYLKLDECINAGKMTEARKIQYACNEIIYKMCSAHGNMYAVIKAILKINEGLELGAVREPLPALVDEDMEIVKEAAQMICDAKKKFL
# Legend:
# [1] = target: RgNanOx (RUMGNA_02695), oxidoreductase (Mediterraneibacter gnavus, UniProt A7B558); assay: HPLC of DMB-labelled product with and without cofactor; format: biochemical
# [2] = target: EcNanA (E. coli Neu5Ac lyase/aldolase) (Escherichia coli, UniProt P0A6L4); assay: lactate dehydrogenase-coupled aldolase assay; format: biochemical
# [3] = target: T1, RgNanA (RUMGNA_02692), sialic acid aldolase; assay: X-ray crystal structure; format: binding
# [4] = tested on: CC(=O)N[C@H]1[C@H]2O[C@@](C(=O)O)(C[C@@H]1O)O[C@@H]2[C@H](O)CO; assay: purified protein; conditions: NAD+ or NADH
# purified protein = substrate: CC(=O)N[C@@H]1[C@@H](O)CC(O)(C(=O)O)O[C@H]1C(O)C(O)CO; assay: purified protein
molecule,measurement,setting,value
NC(=O)C1=CN([C@@H]2O[C@H](COP(=O)(O)OP(=O)(O)OC[C@H]3O[C@@H](n4cnc5c(N)ncnc54)[C@H](O)[C@@H]3O)[C@@H](O)[C@H]2O)C=CC1 [NADH],HPLC of DMB-labelled product with and without cofactor (500 μM),[1],"Neu5Ac was produced in the presence of NAD^+ or NADH, but not in the presence of FAD"
NC(=O)c1ccc[n+]([C@@H]2O[C@H](COP(=O)([O-])OP(=O)(O)OC[C@H]3O[C@@H](n4cnc5c(N)ncnc54)[C@H](O)[C@@H]3O)[C@@H](O)[C@H]2O)c1 [NAD^+],HPLC of DMB-labelled product with and without cofactor (500 μM),[1],"Neu5Ac was produced in the presence of NAD^+ or NADH, but not in the presence of FAD"
CC(=O)N[C@@H]1[C@@H](O)CC(O)(C(=O)O)O[C@H]1C(O)C(O)CO (stereo partly drawn) [Neu5Ac],lactate dehydrogenase-coupled aldolase assay (control enzyme),[2],RgNanA and EcNanA (E. coli Neu5Ac lyase/aldolase used as a control) showed activity against Neu5Ac
same,X-ray crystal structure (5 mM Neu5Ac soak of inactive mutant),[3],"complex between an inactive mutant, RgNanA K167A, and Neu5Ac showed Neu5Ac in the open-chain ketone form"
"RgNanOx (RUMGNA_02695), oxidoreductase (Mediterraneibacter gnavus ATCC 29149)",Km,[4],74 ± 14 µM
"RgNanA (RUMGNA_02692), sialic acid aldolase (Mediterraneibacter gnavus ATCC 29149) (protein) MAFMKQRSKTMRNLEKYKGVIPAFYACYDKEGNISPEGVQGLTKYFVKKGVKGVYVNGSSGECIYQSVEDRKIVLENVMKVAEGKLTVIAHVACNNTKDSQELARHAEGLGVDAIAAIPPIYFHLPEYAIAQYWNAISAAAPNTDFVIYNIPQLAGVALTQNLFVEMRKNPNVIGVKNSSMPVQDIQMFKQAAGAEYIIFNGPDEQFMSGRVIGAEGAIGGTYGAMPELYLKLDECINAGKMTEARKIQYACNEIIYKMCSAHGNMYAVIKAILKINEGLELGAVREPLPALVDEDMEIVKEAAQMICDAKKKFL",Km,purified protein,1473 ± 98 µM
